Results reported in PubChem BioAssay (NCI).
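How tested: cells in 96-well plates exposed to compound for 48 hours at five concentrations. TGI marks complete inhibition of growth.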

tested on: LOX IMVI melanoma; assay: growth of human tumour cells (NCI), 48 h

`CC(C)OC(=O)/C=C/C(=O)O/C=C/[N+](=O)[O-]` and `Cn1c(O)c(C(=O)NC2CCCCC2)c(=O)n(C)c1=S` are within 1.5-fold of each other in TGI: 32.9 µM for the first, 28.5 µM for the second.

Compared with `CC(=O)O[C@H]1C(=O)[C@@]2(C)C(C(OC(=O)c3ccccc3)[C@]3(O)CC(OC(=O)C(O)C(NC(=O)c4ccc(C(F)(F)F)cc4)c4ccccc4)C(C)=C1C3(C)C)[C@]1(OC(C)=O)CO[C@@H]1C[C@@H]2O` (stereo partly specified), `CCOC(=O)c1ccc(NCc2ccc3oc(=O)c(-c4ccccc4)nc3c2)cc1` is higher in TGI: 6.43 µM for the first, over 100 µM for the second.

`COC(=O)CC1N=C(NC#N)N(CCc2c[nH]c3ccccc23)C1=O` (stereo unspecified) and `c1ccc(CNc2nncc3[nH]cnc23)cc1` cannot be ordered by TGI: over 100 µM for the first, over 100 µM for the second.

`COC1=C(OC)C(=O)C(Cc2c(C)nc3sccn23)=C(C)C1=O` and `C[Si](C)(C)OC1CC(=O)OC1n1cc(F)c(=O)[nH]c1=O` (stereo unspecified) are within 1.5-fold of each other in TGI: 36.5 µM for the first, 32.5 µM for the second.

`CCOc1ncn(-c2ccc(NC(=S)NC3OC(CO)C(O)C(O)C3O)cc2)n1` (stereo unspecified) and `Nc1nc([O-])c2c(n1)[n+](C1OC(CO)C(O)C1O)cn2CCO` (stereo unspecified) cannot be ordered by TGI: over 100 µM for the first, over 100 µM for the second.

First: CC(C)=C[C@H]1CCC2(OCCO2)[C@]1(C)COCc1ccccc1
Second: CN(C)CC1CCCC(CN(C)C)C1OC(=O)c1ccccc1 (stereo unspecified)
The TGI of the first is lower: 31 µM for the first, over 100 µM for the second.

Going from `CC1(C)C[C@@H]2C1CCC1(C)CC2(O)CC[C@H]1O` (stereo partly specified) to `CC(CC[C@@]1(C)C(=O)CCC2O[C@]21C)[C@H]1C[C@@H](c2ccoc2)OC1=O` (stereo partly specified), the TGI falls from over 100 µM to 48.2 µM.

`O=Cc1ccccc1COC(=O)c1cc(C(=O)OCc2ccccc2C=O)c(C(=O)OCc2ccccc2C=O)cc1C(=O)OCc1ccccc1C=O` and `Cc1cc(N(CCC#N)CCC#N)ccc1/C=C(\NC(=O)/C=C/c1ccccc1)C(N)=O` cannot be ordered by TGI: over 100 µM for the first, over 100 µM for the second.

`O=C1NC(=S)NC(=O)C1C(c1ccc(O)cc1)C1C(=O)NC(=S)NC1=O` and `N#C/C(=C/NC(N)=S)C(N)=O` cannot be ordered by TGI: over 100 µM for the first, over 100 µM for the second.

In the case of `CN=C(SC)N(C)c1nc(=[N+](C)C)ss1`, the TGI was over 100 µM.

tested on: 786-0 renal; assay: growth of human tumour cells (NCI), 48 h

`O=c1cc(-c2ccc(Oc3ccccc3)cc2)[nH]c2cc3c(cc12)OCO3` and `CCOC(=O)c1ccc(NCc2ccc3oc(=O)c(-c4ccccc4)nc3c2)cc1` cannot be ordered by TGI: over 100 µM for the first, over 100 µM for the second.

First: CC(C)=C[C@H]1CCC2(OCCO2)[C@]1(C)CO
Second: CC(C)=C[C@H]1CCC2(OCCO2)[C@]1(C)COCc1ccccc1
The TGI of the first is higher: over 100 µM for the first, 80.1 µM for the second.

`O=C(/C=C/c1ccc2ccccc2c1)NCc1ccc(C(=O)NCCc2ccccc2)cc1` and `Cc1cc(N(CCC#N)CCC#N)ccc1/C=C(\NC(=O)/C=C/c1ccccc1)C(N)=O` cannot be ordered by TGI: over 100 µM for the first, over 100 µM for the second.

`CCOC(=O)CC(C)C1(C(=O)OCC)CCCCC1=O` (stereo unspecified) and `CC(C)OC(=O)/C=C/C(=O)O/C=C/[N+](=O)[O-]` cannot be ordered by TGI: over 100 µM for the first, over 100 µM for the second.

First: Nc1nc(-[n+]2ccc(-c3ccncc3)cc2)nc(Cl)c1Cl
Second: c1ccc(CNc2nncc3[nH]cnc23)cc1
The TGI of the first is lower: 57.9 µM for the first, over 100 µM for the second.

Compared with `CC(=O)O[C@H]1C(=O)[C@@]2(C)C(C(OC(=O)c3ccccc3)[C@]3(O)CC(OC(=O)C(O)C(NC(=O)c4ccc(C(F)(F)F)cc4)c4ccccc4)C(C)=C1C3(C)C)[C@]1(OC(C)=O)CO[C@@H]1C[C@@H]2O` (stereo partly specified), `O=Cc1ccccc1COC(=O)c1cc(C(=O)OCc2ccccc2C=O)c(C(=O)OCc2ccccc2C=O)cc1C(=O)OCc1ccccc1C=O` is higher in TGI: 5.58 µM for the first, over 100 µM for the second.

`COC(=O)CC1N=C(NC#N)N(CCc2c[nH]c3ccccc23)C1=O` (stereo unspecified) and `CCOC1=NC(O)c2cccn2-c2sccc21` (stereo unspecified) cannot be ordered by TGI: over 100 µM for the first, over 100 µM for the second.

Compared with `COC1=C(OC)C(=O)C(Cc2c(C)nc3sccn23)=C(C)C1=O`, `CCN(CC)CCSc1c2cc(OC)ccc2nc2ccc(OC)cc12` is 11-fold lower in TGI: 43.2 µM for the first, 4.1 µM for the second.

`CCOc1ncn(-c2ccc(NC(=S)NC3OC(CO)C(O)C(O)C3O)cc2)n1` (stereo unspecified) and `Nc1nc([O-])c2c(n1)[n+](C1OC(CO)C(O)C1O)cn2CCO` (stereo unspecified) cannot be ordered by TGI: over 100 µM for the first, over 100 µM for the second.

Going from `Cn1c(O)c(C(=O)NC2CCCCC2)c(=O)n(C)c1=S` to `CC1(C)C[C@@H]2C1CCC1(C)CC2(O)CC[C@H]1O` (stereo partly specified), the TGI rises from 22.9 µM to over 100 µM.

Going from `CC(CC[C@@]1(C)C(=O)CCC2O[C@]21C)[C@H]1C[C@@H](c2ccoc2)OC1=O` (stereo partly specified) to `CC(C)=CCC(O)[C@](C)(O)[C@H]1[C@H](O)C[C@@]2(C)[C@@H]3CCc4cc(O)c(OC5OC(CO)C(O)C(O)C5O)cc4C3(C)C(=O)C[C@]12C` (stereo partly specified), the TGI rises from 63.1 µM to over 100 µM.

`O=C1NC(=S)NC(=O)C1C(c1ccc(O)cc1)C1C(=O)NC(=S)NC1=O` and `C[Si](C)(C)OC1CC(=O)OC1n1cc(F)c(=O)[nH]c1=O` (stereo unspecified) cannot be ordered by TGI: over 100 µM for the first, over 100 µM for the second.

`N#C/C(=C/NC(N)=S)C(N)=O` and `CN(C)CC1CCCC(CN(C)C)C1OC(=O)c1ccccc1` (stereo unspecified) cannot be ordered by TGI: over 100 µM for the first, over 100 µM for the second.

With `CN=C(SC)N(C)c1nc(=[N+](C)C)ss1` the TGI was over 100 µM.

tested on: NCI/ADR-RES ovarian; assay: growth of human tumour cells (NCI), 48 h

`CC(C)=C[C@H]1CCC2(OCCO2)[C@]1(C)CO` and `CC(C)=C[C@H]1CCC2(OCCO2)[C@]1(C)COCc1ccccc1` cannot be ordered by TGI: over 100 µM for the first, over 100 µM for the second.

`O=C(/C=C/c1ccc2ccccc2c1)NCc1ccc(C(=O)NCCc2ccccc2)cc1` and `c1ccc(CNc2nncc3[nH]cnc23)cc1` cannot be ordered by TGI: over 100 µM for the first, over 100 µM for the second.

`Nc1nc(-[n+]2ccc(-c3ccncc3)cc2)nc(Cl)c1Cl` and `CCOC1=NC(O)c2cccn2-c2sccc21` (stereo unspecified) cannot be ordered by TGI: over 100 µM for the first, over 100 µM for the second.

Compared with `CC(C)OC(=O)/C=C/C(=O)O/C=C/[N+](=O)[O-]`, `COC1=C(OC)C(=O)C(Cc2c(C)nc3sccn23)=C(C)C1=O` is lower in TGI: over 100 µM for the first, 31.1 µM for the second.

`CC1(C)C[C@@H]2C1CCC1(C)CC2(O)CC[C@H]1O` (stereo partly specified) and `CC(CC[C@@]1(C)C(=O)CCC2O[C@]21C)[C@H]1C[C@@H](c2ccoc2)OC1=O` (stereo partly specified) cannot be ordered by TGI: over 100 µM for the first, over 100 µM for the second.
